Source: ChEMBL document CHEMBL2007661, “Compounds: GSK PKIS; Assays: UNC Frye lab” (2012)
Values joined by “and” are separate entries in the source; they are usually repeats but may differ in a detail not shown here. Identical values can stand only once.

How the values were obtained:
Conditions in all cases: at 1 µM
[1] = target: T1, Inhibitor of nuclear factor kappa-B kinase subunit epsilon (Homo sapiens) (UniProt Q14164)
T1 sequence (whole entry): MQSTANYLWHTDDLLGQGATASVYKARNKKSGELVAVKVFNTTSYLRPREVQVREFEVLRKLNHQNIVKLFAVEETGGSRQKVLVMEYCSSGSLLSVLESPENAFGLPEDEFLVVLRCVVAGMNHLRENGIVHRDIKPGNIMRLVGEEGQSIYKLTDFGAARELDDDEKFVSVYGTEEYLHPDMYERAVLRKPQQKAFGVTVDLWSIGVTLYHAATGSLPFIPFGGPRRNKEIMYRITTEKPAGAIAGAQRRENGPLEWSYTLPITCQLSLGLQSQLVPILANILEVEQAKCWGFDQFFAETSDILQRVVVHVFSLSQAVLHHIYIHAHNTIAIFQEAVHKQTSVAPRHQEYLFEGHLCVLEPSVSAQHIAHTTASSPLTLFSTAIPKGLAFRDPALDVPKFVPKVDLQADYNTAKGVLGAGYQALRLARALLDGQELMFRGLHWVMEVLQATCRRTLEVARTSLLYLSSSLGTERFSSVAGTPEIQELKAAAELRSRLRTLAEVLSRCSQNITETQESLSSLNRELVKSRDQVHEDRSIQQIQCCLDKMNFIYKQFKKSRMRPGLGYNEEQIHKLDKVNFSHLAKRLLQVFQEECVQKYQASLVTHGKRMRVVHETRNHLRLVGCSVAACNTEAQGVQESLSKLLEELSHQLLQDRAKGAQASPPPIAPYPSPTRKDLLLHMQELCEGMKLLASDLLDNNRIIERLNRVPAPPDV

[2] = target: T2, Serine/threonine-protein kinase TBK1 (Homo sapiens) (UniProt Q9UHD2)
T2 sequence (whole entry): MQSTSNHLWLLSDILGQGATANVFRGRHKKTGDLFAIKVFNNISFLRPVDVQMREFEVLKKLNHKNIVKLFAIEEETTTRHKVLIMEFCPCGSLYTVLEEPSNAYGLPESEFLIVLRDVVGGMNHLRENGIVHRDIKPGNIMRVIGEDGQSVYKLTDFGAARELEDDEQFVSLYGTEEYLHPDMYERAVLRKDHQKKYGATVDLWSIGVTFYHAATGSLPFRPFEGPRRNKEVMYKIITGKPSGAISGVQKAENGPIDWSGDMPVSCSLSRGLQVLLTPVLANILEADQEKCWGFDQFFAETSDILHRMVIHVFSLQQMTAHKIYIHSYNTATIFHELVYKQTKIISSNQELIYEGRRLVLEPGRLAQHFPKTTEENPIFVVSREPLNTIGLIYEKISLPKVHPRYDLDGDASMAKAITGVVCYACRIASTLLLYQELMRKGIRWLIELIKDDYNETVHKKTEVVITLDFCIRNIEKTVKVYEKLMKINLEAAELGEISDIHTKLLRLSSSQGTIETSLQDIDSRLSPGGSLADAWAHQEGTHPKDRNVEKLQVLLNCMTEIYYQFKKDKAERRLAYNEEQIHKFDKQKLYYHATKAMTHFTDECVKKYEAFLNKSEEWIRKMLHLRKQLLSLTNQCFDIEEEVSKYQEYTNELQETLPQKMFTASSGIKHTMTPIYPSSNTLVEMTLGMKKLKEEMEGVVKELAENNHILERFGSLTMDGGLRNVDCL

[3] = target: T3, Inhibitor of nuclear factor kappa-B kinase subunit beta (Homo sapiens) (UniProt O14920)
T3 sequence (whole entry): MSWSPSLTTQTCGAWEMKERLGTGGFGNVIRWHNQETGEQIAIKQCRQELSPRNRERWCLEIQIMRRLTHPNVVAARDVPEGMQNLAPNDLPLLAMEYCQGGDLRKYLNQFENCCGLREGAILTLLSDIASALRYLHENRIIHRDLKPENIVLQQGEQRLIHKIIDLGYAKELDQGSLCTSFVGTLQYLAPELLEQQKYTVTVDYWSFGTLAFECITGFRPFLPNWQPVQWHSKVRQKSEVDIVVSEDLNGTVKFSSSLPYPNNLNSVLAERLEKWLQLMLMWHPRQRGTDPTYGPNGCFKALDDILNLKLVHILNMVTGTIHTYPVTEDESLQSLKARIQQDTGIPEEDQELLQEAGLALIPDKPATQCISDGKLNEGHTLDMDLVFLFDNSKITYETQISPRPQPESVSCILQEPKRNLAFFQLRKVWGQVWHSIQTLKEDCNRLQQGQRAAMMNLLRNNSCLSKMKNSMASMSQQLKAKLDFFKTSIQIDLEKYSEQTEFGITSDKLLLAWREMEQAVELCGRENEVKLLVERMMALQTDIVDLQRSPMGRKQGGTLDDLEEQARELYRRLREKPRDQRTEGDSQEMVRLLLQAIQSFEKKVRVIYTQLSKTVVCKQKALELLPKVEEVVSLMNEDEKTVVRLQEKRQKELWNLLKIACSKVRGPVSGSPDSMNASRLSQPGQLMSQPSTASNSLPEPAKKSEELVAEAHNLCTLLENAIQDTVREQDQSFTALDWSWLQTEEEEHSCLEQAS

SMILES	inhibition [1]	inhibition [2]	inhibition [3]
O=C(O[C@H]1CN[C@H](C#Cc2cc3ncnc(Nc4ccc5c(cnn5Cc5ccccc5)c4)c3s2)C1)N1CCOCC1	1% and 2%	26% and 31%	-4% and -7%
O=C(Nc1ccc(Oc2ccc3[nH]c(NC(=O)c4ccco4)nc3c2)cc1)Nc1cc(C(F)(F)F)ccc1F	1% and 0%	0% and 2%	0% and 1%
C[C@@H](Oc1cc(-n2cnc3ccc(OCC4CCN(C)CC4)cc32)sc1C(N)=O)c1ccccc1C(F)(F)F	2% and 4%	11% and 4%	-2% and 0%
COc1cccc(-n2ncc3c(N/N=C/c4ccc(F)cc4)ncnc32)c1	1% and 0%	5% and 11%	1% and -3%
CS(=O)(=O)CCNCc1ccc(-c2ccc3ncnc(Nc4ccc(OCc5ccccc5)c(C(F)(F)F)c4)c3c2)o1	-2% and -1%	-3% and -1%	-5% and -3%
CCc1ccc(Oc2nccc(-c3c(-c4ccc(F)cc4)ncn3C3CCNCC3)n2)cc1	-3% and -4%	-6% and -3%	-7% and -6%
CNC(=O)c1cncc(/C=C/c2ccccc2C)c1	3% and 1%	2% and 5%	-1% and -3%
CN(C)CCCNc1nccc(-c2c(-c3ccc(F)cc3)nn3cc(C(F)(F)F)ccc23)n1	-1% and 0%	-1% and 2%	2% and 0%
Cc1ccc2c(-c3ccnc(Nc4ccccc4)n3)c(-c3ccc(F)cc3)nn2n1	-1% and 0%	-1% and -3%	-1% and -4%
NS(=O)(=O)c1ccc(Nc2ncc(-c3ccccc3)o2)cc1	2% and 3%	10% and 5%	-2% and 2%
O=C1NC(=O)C(N2CCc3ccccc32)=C1c1ccc(Cl)cc1	1%	1%	3% and 2%
CCCN(CCS(C)(=O)=O)Cc1ccc(-c2ccc3ncnc(Nc4ccc(OCc5cccc(F)c5)c(Cl)c4)c3c2)o1	1% and 3%	7% and 10%	-1% and -5%
COc1ccc2[nH]c3c4[nH]c5ccc(OC)cc5c4c4c(c3c2c1)C(=O)NC4=O	21% and 20%	55% and 56%	-1% and -5%
CCn1c(-c2nonc2N)nc2c(N3CCCC3)nccc21	-3% and -4%	-8% and -4%	-6% and -5%
Cc1cccc(-c2n[nH]cc2-c2ccc3ncccc3n2)n1	-4%	-10% and -6%	-4% and -1%
Cc1nnc(-c2ccc(C)c(-c3ccc(C(=O)Nc4cccc(C#N)c4)cc3)c2)o1	-2% and -1%	-2%	0% and -2%
OCc1ccc(-c2nc(-c3ccccn3)c(-c3ccc4c(c3)OCO4)[nH]2)cc1	-2%	-6% and -5%	-4% and -3%
COC(=O)Nc1nc2cc(Oc3cccc(NC(=O)Nc4cc(C(F)(F)F)ccc4F)c3)ccc2[nH]1	-1% and -2%	-2%	0% and 5%
COc1cc(N2CCN(C(C)C)CC2)ccc1Nc1nc(Nc2cccc3ncccc23)c2cc[nH]c2n1	2% and 0%	7% and 2%	-2% and -4%
O=C(Nc1n[nH]c2nnc(-c3cccnc3)cc12)C1CC1	-1% and 1%	5% and 3%	2%
COc1cc(C)c(N(C)C(=O)CN(C)C)cc1Nc1nc(Nc2cccc(F)c2C(N)=O)c2cc[nH]c2n1	-3% and -2%	-4% and -3%	-3% and -6%

SMILES	inhibition [1]	inhibition [2]	inhibition [3]
COc1cccc(-n2ncc3c(N/N=C/c4cccc(F)c4)ncnc32)c1	-1% and 0%	6% and 5%	-7% and -5%
CC(C)(CO)CNC(=O)c1ccc2c(c1)/C(=N/Nc1ccc(S(N)(=O)=O)cc1)C(=O)N2	77% and 76%	87% and 88%	-2%
COc1cc2ncn(-c3cc(OCc4ccccc4C(F)(F)F)c(C(=O)N(C)C)s3)c2cc1OC	-1%	-1% and 0%	-3% and -1%
CCN1CCC(CC(=O)Nc2n[nH]c3nc(-c4cccs4)c(Br)cc23)CC1	2% and 1%	8% and 6%	-4% and -3%
c1ccc(-c2nc3n(c2-c2ccc4c(c2)OCO4)CCC3)nc1	1% and 2%	5%	-5% and -3%
COc1cc(Nc2ncc3c(C)nc(-c4cccc(C(F)(F)F)c4)n3n2)cc(OC)c1OC	29% and 33%	53% and 45%	-4% and -5%
Cc1cc(O)cc(C)c1/C=C/c1cncc(C(=O)N(C)C)c1	3% and 1%	1% and 6%	3% and 2%
COc1cc(C)c(NC(=O)CN(C)C)cc1Nc1nc(Nc2cccc(F)c2C(N)=O)c2cc[nH]c2n1	9% and 8%	30% and 32%	-1% and 18%
Nc1nccc(-c2c(-c3ccc(F)cc3)nn3cc(C(F)(F)F)ccc23)n1	2%	-3% and 1%	-2% and -4%
CCCN1CCC(c2ccc(Nc3nc(Nc4cc(F)ccc4C(N)=O)c4cc[nH]c4n3)c(OC)c2)CC1	8% and 6%	13% and 7%	-2% and 4%
Nc1nc(-c2ccc3c(c2)C(=Cc2cc(Br)c(O)c(Br)c2)C(=O)N3)cs1	8% and 6%	7% and 5%	-8%
NCc1ccc(-n2c(-c3nonc3N)nc3cnccc32)cc1	2%	6% and 5%	-6% and -2%
c1ccc(Nc2ncc(-c3ccccc3)o2)cc1	0% and -1%	2% and 1%	-4%
Fc1cccc(COc2ccc(Nc3ncncc3C#Cc3ccccc3)cc2Cl)c1	-4% and 0%	-6% and -7%	-6% and -3%
Nc1nc(-c2ccccn2)c(-c2ccc3ncccc3n2)s1	0% and -2%	3% and 0%	-4% and -7%
CN(c1ccc(NC(=O)NCCN2CCOCC2)cc1)c1ccnc(Nc2ccc(CS(C)(=O)=O)cc2)n1	2% and 5%	3% and 2%	2% and -2%
CC(C)COC(=O)c1ccc2c(c1)/C(=C/Nc1ccc(S(N)(=O)=O)cc1)C(=O)N2	94%	93% and 98%	0% and -1%
NS(=O)(=O)c1ccc(Nc2cc(-c3ccc(O)c(F)c3)n[nH]2)cc1	4% and 3%	16% and 17%	-2% and -1%
CN1CCC(C(=O)Nc2n[nH]c3nnc(-c4ccccc4)cc23)CC1	-3%	-3% and -7%	-4%
COC(=O)Nc1nc2cc(Oc3ccc(NC(=O)Nc4cccc(C(=O)O)c4)cc3)ccc2[nH]1	0% and -2%	-5% and -2%	-3% and 3%
COc1cc(Nc2ncc(-c3ccccc3)o2)cc(OC)c1OC	17% and 13%	35% and 27%	15% and 0%
